This passage reports residual activity, IC50 and solubility results from ChEMBL document CHEMBL1157712, “Hit to lead account of the discovery of bisbenzamide and related ureidobenzamide inhibitors of Rho kinase” (J Med Chem, 2010).

For series [1], the target named is Lymphokine-activated killer T-cell-originated protein kinase (Homo sapiens) (UniProt Q96KB5). Briefly: Inhibition of PBK at 3 uM relative to control; values are per cent of control.
Series [2] deals with Ribosomal protein S6 kinase alpha-5 (Homo sapiens) (UniProt O75582). Put plainly: Inhibition of MSK1 at 3 uM relative to control; values are per cent of control.
Ribosomal protein S6 kinase alpha-5 (Homo sapiens), sequence (O75582 whole entry, looked up): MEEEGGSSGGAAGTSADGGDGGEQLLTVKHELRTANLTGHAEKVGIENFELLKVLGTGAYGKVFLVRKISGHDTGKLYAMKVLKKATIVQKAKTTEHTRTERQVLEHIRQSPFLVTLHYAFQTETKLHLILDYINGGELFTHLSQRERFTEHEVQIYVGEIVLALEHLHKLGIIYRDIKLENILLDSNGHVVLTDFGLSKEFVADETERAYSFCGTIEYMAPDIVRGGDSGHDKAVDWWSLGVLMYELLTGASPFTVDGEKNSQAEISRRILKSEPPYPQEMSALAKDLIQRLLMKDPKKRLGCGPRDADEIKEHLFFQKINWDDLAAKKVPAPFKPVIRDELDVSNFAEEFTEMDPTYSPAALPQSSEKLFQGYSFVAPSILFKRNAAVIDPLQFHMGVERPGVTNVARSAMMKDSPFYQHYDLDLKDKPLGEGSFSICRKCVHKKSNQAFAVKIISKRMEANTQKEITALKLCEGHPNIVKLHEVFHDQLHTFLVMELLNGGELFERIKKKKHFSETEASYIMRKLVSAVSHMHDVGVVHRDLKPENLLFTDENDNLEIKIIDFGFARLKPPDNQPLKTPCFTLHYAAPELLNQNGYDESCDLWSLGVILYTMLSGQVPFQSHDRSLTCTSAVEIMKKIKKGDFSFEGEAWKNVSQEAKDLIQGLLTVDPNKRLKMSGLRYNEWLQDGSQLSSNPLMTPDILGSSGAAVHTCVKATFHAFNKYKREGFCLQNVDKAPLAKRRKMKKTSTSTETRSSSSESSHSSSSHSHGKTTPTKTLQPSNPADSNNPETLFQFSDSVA
For series [3], the target named is Aurora kinase B (Homo sapiens) (UniProt Q96GD4). Briefly: Inhibition of Aurora B at 3 uM relative to control; values are per cent of control.
Aurora kinase B (Homo sapiens), sequence (Q96GD4 whole entry): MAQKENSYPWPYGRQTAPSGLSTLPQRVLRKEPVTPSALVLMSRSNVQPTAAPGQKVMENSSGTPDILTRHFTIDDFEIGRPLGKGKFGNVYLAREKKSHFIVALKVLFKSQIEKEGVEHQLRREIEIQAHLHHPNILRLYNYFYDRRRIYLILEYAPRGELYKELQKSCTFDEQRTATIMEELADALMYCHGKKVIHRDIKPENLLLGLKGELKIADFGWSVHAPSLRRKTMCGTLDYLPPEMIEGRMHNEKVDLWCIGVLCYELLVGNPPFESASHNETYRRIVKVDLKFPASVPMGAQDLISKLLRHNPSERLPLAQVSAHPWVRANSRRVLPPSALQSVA
The next series deals with T1, Cytochrome P450 1A2 (Homo sapiens, UniProt P05177).
T1 sequence (P05177 whole entry): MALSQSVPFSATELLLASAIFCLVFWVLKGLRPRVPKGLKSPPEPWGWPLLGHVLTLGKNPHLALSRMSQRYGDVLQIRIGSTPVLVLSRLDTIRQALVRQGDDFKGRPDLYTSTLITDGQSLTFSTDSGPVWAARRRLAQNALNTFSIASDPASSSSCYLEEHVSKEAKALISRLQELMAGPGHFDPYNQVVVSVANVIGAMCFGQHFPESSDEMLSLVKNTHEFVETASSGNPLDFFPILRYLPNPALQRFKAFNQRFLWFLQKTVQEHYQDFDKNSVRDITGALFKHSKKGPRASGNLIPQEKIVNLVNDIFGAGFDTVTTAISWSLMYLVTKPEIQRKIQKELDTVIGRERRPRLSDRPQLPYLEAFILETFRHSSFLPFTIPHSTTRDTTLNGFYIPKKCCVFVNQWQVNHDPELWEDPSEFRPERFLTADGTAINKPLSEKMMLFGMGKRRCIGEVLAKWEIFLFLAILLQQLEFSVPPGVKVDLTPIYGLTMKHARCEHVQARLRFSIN
Briefly: Inhibition of human CYP1A2 by fluorescence assay. It is filed as ADME.

Series [4] can be described thus: Solubility at pH 7.4. It counts as physicochemical. The following applies: buffer.
For series [5], the target named is Serine/threonine-protein kinase Nek7 (Homo sapiens) (UniProt Q8TDX7). The following applies: 3 to 6 uM.
Serine/threonine-protein kinase Nek7 (Homo sapiens), sequence (Q8TDX7 whole entry, looked up): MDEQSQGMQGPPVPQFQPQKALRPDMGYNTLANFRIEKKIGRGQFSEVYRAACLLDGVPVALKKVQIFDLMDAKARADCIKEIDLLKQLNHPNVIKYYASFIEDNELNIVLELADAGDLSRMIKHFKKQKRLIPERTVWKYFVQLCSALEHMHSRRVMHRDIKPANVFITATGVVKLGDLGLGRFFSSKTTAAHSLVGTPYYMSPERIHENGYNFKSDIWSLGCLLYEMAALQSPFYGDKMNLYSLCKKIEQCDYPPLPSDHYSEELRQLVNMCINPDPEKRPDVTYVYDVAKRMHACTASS
Description: Inhibition of NEK7 at 3 to 6 uM relative to control
Series [6] concerns the target Calcium/calmodulin-dependent protein kinase type 1 (Homo sapiens) (UniProt Q14012). The following applies: 3 to 6 uM.
Description: Inhibition of CAMK1 at 3 to 6 uM relative to control
The target of series [7] is Serine/threonine-protein kinase Chk2 (Homo sapiens) (UniProt O96017). The following applies: 3 to 6 uM.
Serine/threonine-protein kinase Chk2 (Homo sapiens), sequence (O96017 whole entry): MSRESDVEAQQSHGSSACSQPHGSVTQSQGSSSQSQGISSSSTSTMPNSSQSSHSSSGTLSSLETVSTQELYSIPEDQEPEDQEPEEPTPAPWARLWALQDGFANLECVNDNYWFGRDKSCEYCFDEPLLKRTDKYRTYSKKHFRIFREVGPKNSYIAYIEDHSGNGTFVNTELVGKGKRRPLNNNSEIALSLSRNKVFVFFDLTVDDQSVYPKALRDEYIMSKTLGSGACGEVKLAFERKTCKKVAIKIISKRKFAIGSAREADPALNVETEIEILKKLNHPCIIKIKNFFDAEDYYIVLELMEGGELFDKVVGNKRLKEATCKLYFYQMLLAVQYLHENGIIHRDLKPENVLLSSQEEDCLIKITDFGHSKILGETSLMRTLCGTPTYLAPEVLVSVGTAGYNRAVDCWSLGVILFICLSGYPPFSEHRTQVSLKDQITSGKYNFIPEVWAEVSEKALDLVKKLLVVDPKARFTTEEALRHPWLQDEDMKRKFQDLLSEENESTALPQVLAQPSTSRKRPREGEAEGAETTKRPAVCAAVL
Description: Inhibition of CHK2 at 3 to 6 uM relative to control
For series [8], the target named is Dual specificity protein kinase CLK1 (Homo sapiens) (UniProt P49759). The conditions noted are these: 3 to 6 uM.
Dual specificity protein kinase CLK1 (Homo sapiens), sequence (P49759 whole entry, looked up): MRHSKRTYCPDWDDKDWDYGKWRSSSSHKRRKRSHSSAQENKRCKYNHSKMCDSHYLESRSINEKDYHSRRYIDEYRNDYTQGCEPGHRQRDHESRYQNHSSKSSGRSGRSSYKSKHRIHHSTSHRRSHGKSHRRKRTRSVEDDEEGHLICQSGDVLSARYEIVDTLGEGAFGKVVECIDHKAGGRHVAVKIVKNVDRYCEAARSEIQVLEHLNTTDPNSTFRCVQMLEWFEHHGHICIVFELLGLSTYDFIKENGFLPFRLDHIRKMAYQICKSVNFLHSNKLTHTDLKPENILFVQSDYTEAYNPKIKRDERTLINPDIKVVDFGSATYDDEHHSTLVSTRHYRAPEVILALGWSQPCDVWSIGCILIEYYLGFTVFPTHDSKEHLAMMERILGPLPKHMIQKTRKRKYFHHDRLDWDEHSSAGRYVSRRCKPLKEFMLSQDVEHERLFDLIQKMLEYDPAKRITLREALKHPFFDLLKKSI
Description: Inhibition of CLK1 at 3 to 6 uM relative to control
The target of series [9] is Tyrosine-protein kinase CSK (Homo sapiens) (UniProt P41240). The conditions noted are these: 3 to 6 uM.
Tyrosine-protein kinase CSK (Homo sapiens), sequence (P41240 2-450 limits assumed): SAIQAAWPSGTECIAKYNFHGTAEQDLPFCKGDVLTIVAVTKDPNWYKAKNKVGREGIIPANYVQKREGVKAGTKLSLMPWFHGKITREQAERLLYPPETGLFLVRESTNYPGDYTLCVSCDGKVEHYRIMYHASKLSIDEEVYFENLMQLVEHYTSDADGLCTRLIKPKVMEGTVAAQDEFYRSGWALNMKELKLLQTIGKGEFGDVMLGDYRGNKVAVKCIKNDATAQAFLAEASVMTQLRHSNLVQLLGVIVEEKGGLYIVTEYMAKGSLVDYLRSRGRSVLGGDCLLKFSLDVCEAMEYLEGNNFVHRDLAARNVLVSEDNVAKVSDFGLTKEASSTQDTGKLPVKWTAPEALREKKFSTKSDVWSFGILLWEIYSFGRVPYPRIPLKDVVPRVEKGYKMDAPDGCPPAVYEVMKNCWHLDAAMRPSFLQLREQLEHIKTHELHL
Description: Inhibition of CSK at 3 to 6 uM relative to control
The target in series [10] is Dual specificity tyrosine-phosphorylation-regulated kinase 1A (Homo sapiens) (UniProt Q13627). The conditions noted are these: 3 to 6 uM.
Description: Inhibition of DYRK1A at 3 to 6 uM relative to control
The target in series [11] is Eukaryotic elongation factor 2 kinase (Homo sapiens) (UniProt O00418). The conditions noted are these: 3 to 6 uM.
Eukaryotic elongation factor 2 kinase (Homo sapiens), sequence (O00418 whole entry): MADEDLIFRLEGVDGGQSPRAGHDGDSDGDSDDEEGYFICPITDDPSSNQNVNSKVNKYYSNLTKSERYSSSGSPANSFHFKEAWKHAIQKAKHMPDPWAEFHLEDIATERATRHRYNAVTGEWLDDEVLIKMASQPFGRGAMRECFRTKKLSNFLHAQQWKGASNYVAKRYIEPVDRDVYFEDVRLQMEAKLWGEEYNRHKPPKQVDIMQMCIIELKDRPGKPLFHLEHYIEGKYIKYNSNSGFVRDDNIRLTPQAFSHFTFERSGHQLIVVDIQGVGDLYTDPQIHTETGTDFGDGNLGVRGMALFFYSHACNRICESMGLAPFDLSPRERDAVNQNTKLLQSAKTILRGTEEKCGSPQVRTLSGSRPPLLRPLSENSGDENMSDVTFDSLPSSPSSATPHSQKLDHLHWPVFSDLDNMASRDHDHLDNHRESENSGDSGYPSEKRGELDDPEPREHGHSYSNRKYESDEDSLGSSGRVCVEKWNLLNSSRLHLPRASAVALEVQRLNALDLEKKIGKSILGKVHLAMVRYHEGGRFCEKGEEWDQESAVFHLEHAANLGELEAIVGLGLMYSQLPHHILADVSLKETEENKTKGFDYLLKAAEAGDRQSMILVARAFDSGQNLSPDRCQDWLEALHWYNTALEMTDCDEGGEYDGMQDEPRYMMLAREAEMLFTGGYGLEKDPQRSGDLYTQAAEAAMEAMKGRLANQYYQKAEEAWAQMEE
Description: Inhibition of EF2K at 3 to 6 uM relative to control
Series [12] concerns the target Inhibitor of nuclear factor kappa-B kinase subunit epsilon (Homo sapiens) (UniProt Q14164). The following applies: 3 to 6 uM.
Description: Inhibition of IKKE at 3 to 6 uM relative to control

pIC50: −log10 of the molar value. Values after ≈ are worked out from the molar mass of the structure shown. A value given as a limit tells only on which side of the number the result lay.

As usually defined, the pIC50 is the IC50 on a negative log10 scale, so that one unit is a factor of ten. A low value points to a large IC50. A word on the solubility: it is the dissolved amount per volume that the medium holds. A low value points to little dissolved substance.

Calcium/calmodulin-dependent protein kinase type 1 (Homo sapiens), sequence (Q14012 whole entry, looked up): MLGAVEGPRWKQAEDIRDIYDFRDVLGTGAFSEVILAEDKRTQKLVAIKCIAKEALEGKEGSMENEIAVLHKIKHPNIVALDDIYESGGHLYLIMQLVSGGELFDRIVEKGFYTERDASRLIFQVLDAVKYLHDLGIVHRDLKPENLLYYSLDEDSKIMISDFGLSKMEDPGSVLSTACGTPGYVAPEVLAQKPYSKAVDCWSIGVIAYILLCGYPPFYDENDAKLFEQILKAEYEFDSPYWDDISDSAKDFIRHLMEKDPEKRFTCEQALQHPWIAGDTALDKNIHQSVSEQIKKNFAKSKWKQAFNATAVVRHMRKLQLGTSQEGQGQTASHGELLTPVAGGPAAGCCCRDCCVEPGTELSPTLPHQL
Lymphokine-activated killer T-cell-originated protein kinase (Homo sapiens), sequence (Q96KB5 whole entry): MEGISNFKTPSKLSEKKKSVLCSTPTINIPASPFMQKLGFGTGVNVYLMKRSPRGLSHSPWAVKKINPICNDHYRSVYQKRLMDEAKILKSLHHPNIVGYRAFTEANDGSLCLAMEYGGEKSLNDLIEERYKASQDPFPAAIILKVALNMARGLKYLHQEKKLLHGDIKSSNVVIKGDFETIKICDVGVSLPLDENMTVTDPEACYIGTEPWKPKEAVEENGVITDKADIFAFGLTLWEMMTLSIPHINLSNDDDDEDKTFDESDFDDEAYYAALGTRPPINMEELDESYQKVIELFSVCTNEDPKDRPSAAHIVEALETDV

For `NC(=O)c1ccc(NC(=O)NCc2cccc(C(=O)Nc3ccc4c(c3)CNCC4)c2)cc1`, the residual activity in series [1], in [2] and in series [3] was > 50% in each case.
In the case of `COc1ccc(C(=O)NCc2cccc(C(=O)Nc3ccc4c(c3)CNCC4)c2)cc1OC`, the negative logarithm of the IC50 (pIC50) against Cytochrome P450 1A2 was < 4.52. Besides, the solubility in [4] was found to be 49 µg/mL (≈ 110 µM). Also, the residual activity in series [5], in series [6], in series [7], in series [8], in [9] and in series [10] was > 50% each time. The residual activity in series [11] and in series [12] was > 50% each time.
